The test system of experiment [1] is KATO III cells. The experiment in a line: Cell viability assay (MTT). Type of experiment: cell-based. The conditions noted are these: Homo sapiens, mean ± SD. The protocol:
(§1) For suspension and mixed suspension adherent cells, the cells were seeded in 96-well plate with different cell density, 0.5×10^4 per well for 96 h treatment, 1×10^4 per well for 72 h treatment, 2×10^4 per well for 48 h treatment, and 5×10^4 per well for 24 h treatment. Different doses of RK-019 were treated as soon as the cell seeded in 96-well plates. For adherent cells, the cells were seeded in a 96-well plate with 3×10^3 per well and cultured overnight followed by administrated different doses of RK-019. After indicated time treatment, MTT solution at a final concentration of 0.5 mg/ml was added and incubated 2–4 h at 37°C. Formazan formed by the living cells was dissolved with DMSO and the absorbance was measured using a microplate spectrophotometer (MultiskanFC, ThermoFisher, Waltham, MA, United States) at 570 nm. IC50 value of RK-019 was calculated by the Graphpad Prism software.
(§2) All data were analyzed by the GraphPad Prism 8.4.3 (GraphPad Software, California, United States), and was shown as mean value ±SD or SEM, details will be illustrated in the figure legends. Dose-effect curve analysis (IC50 calculation) was performed by the Graphpad Prism software. […] The statistically significant p values were calculated by student’s t-test or two-way ANOVA and were shown in graphics which were labeled as follows: *p < 0.05; **p < 0.01; ***p < 0.001.

The test system of experiment [2] is SNU-16 cells. The experiment is described as follows: Cell viability assay (MTT). The settings on record: Homo sapiens; SNU-16, mean ± SD. Type of experiment: cell-based. The method, then:
as §1, §2

A further experiment has as its system CK1(y). The experiment in a line: Kinase selectivity panel. The format is biochemical, yeast. The settings on record: read-out: Inhibition(%) @ 1 µM RK-019. The protocol:
Median-inhibitory concentration (IC50) and inhibition ratio of kinases by RK-019 was assessed by Eurofins Discovery Services (Dundee, United Kingdom) using the ATP-site competition binding assay in vitro. Firstly, gradient concentration of RK-019 against FGFRs, including FGFR1, FGFR2, FGFR3, and FGFR4, were tested. IC50 value was calculate by the GraphPad Prism software (v8.4.3, GraphPad Software, California, United States). Then, to measure the selectivity prolife of RK-019, a panel of 422 recombinant human kinases was screened at a concentration of 1 µM RK-019. Kinase MAP was drawn by webtools from Cell Signaling Technology, Inc. (www.cellsignal.com).

Experiment [3] deals with KATO III cells. The experiment in a line: Apoptosis analysis by flow cytometry (Annexin V-PE/7-AAD). Type of experiment: cell-based. The settings on record: 72 h. The protocol: (§3) Cell cycle and apoptosis assay were both measured by flow cytometry (FCM). The data were analyzed by the NovoExpress software (v1.4.0, Agilent, Santa Clara, CA, United States). For cell cycle assay, the cells were treated by different concentrations of RK-019 for 24 h, then were harvested and washed twice with cold phosphate buffered solution (PBS), followed by fixed with 75% ethanol overnight. Before test, the cells were washed twice with cold PBS and stained with PI stanning solution using cell cycle detecting kit (KGA512, KeyGEN, Nanjing, China), and then measured by FCM. […]
A general note: In flow cytometry, cells or beads pass a laser one at a time.

Experiment [4] concerns SNU-16 cells. The description is as above. The format is cell-based. The settings on record: SNU-16, 72 h. The method, then:
as §3

For experiment [5], the system named is KATO III cells. The experiment is described as follows: Cell cycle analysis by flow cytometry (PI staining). Type of experiment: cell-based. The conditions noted are these: 100 nM, 24 h. The protocol: Cell cycle and apoptosis assay were both measured by flow cytometry (FCM). The data were analyzed by the NovoExpress software (v1.4.0, Agilent, Santa Clara, CA, United States). For cell cycle assay, the cells were treated by different concentrations of RK-019 for 24 h, then were harvested and washed twice with cold phosphate buffered solution (PBS), followed by fixed with 75% ethanol overnight. Before test, the cells were washed twice with cold PBS and stained with PI stanning solution using cell cycle detecting kit (KGA512, KeyGEN, Nanjing, China), and then measured by FCM. For apoptosis assay, the cells were harvested after treated with different concentrations of RK-019 for 24 h, and stained with a PE Annexin V Apoptosis Detection Kit according to the manufacturer’s protocol followed by detected using FCM.

The test system of experiment [6] is KATO III cells. The experiment is described as follows: Cell counting assay (trypan blue). The conditions noted are these: KATO III, 5, 10, and 100 nM, 9 days. Type of experiment: cell-based. The protocol: (§4) SNU-16 and KATO III were seeded in 6-well plated with 1×10^5 per well. RK-019 was treated as soon as the cells seeded in the 6-well plates. After indicated time, the images were captured using an inverted microscope. Then, the cells in the captured well were resuspended and live cell numbers were determined by the trypan blue (BL627A, Biosharp, Hefei, China) method.

The test system of experiment [7] is SNU-16 cells. The experiment is described as follows: Cell counting assay (trypan blue). The conditions noted are these: SNU-16, 10 and 100 nM, 9 days. The format is cell-based. The method, then: as §4

From publication PMC9532703, “A novel small molecule RK-019 inhibits FGFR2-amplification gastric cancer cell proliferation and induces apoptosis in vitro and in vivo” (Frontiers in Pharmacology, 2022) come the findings set out here.

In general, IC50 refers to the concentration that gives 50% inhibition. Low values mean inhibition by little substance, high ones a need for much substance.

With `COc1cc(OC)cc(N(CCN[C@H](C)CO)c2ccc3ncc(-c4cnn(C)c4)c(=O)n3c2)c1` [RK-019, (R)-7-((3,5-dimethoxyphenyl) (2-((1-hydroxypropan-2-yl)amino)ethyl)amino)-3-(1-methyl-1H-pyrazol-4-yl)-4H-pyrido [1,2-a]pyrimidin-4-one], the IC50 in the experiment with KATO III cells [1] stood at 5.45 ± 5.3 nM; with SNU-16 cells [2], 3.96 ± 4.4 nM. In the experiment on CK1(y), the activity amounted to 94%. In addition, the “population of apoptotic cells (early and late apoptotic cells)” value stood at 32.7% with KATO III cells [3] and 45.5% with SNU-16 cells [4]. Moreover, the G0/G1 proportion with KATO III cells [5] is listed as 67.88%. In addition, the “live cell numbers, prolonged administration” value in the experiment with KATO III cells [6] is “suppressed”; with SNU-16 cells [7] it was “inhibited”.
